# Laboratory results taken from ChEMBL document CHEMBL1144507, “Synthesis and antifungal activity of (Z)-5-arylidenerhodanines” (2007).
# Key:
# Trichophyton benhamiae [1] = assay: Antifungal activity against Trichophyton mentagrophytes C738 after 48 hrs; format: functional, Arthroderma benhamiae
# Trichophyton benhamiae [2] = assay: Antifungal activity against Trichophyton mentagrophytes C108 after 48 hrs; format: functional, Arthroderma benhamiae
# Trichophyton rubrum [3] = assay: Antifungal activity against Trichophyton rubrum C140 after 48 hrs; format: functional
# Trichophyton rubrum [4] = assay: Antifungal activity against Trichophyton rubrum C136 after 48 hrs; format: functional
# Trichophyton rubrum [5] = assay: Antifungal activity against Trichophyton rubrum C139 after 48 hrs; format: functional
# Trichophyton benhamiae [6] = assay: Antifungal activity against Trichophyton mentagrophytes C943 after 48 hrs; format: functional, Arthroderma benhamiae
# Trichophyton rubrum [7] = assay: Antifungal activity against Trichophyton rubrum C110 after 48 hrs; format: functional
# Trichophyton rubrum [8] = assay: Antifungal activity against Trichophyton rubrum C137 after 48 hrs; format: functional
# Trichophyton benhamiae [9] = assay: Antifungal activity against Trichophyton mentagrophytes C364 after 48 hrs; format: functional, Arthroderma benhamiae
# Trichophyton benhamiae [10] = assay: Antifungal activity against Trichophyton mentagrophytes C539 after 48 hrs; format: functional, Arthroderma benhamiae
# Trichophyton rubrum [11] = assay: Antifungal activity against Trichophyton rubrum C135 after 48 hrs; format: functional
# Saccharomyces cerevisiae = assay: Antifungal activity against Saccharomyces cerevisiae ATCC 9763 after 48 hrs; format: functional; conditions: ATCC 9763, 48 h
# Nannizzia gypsea = assay: Antifungal activity against Microsporum gypseum C115 after 48 hrs; format: functional
# Trichophyton benhamiae [12] = assay: Antifungal activity against Trichophyton mentagrophytes ATCC 9972 after 48 hrs; format: functional, Arthroderma benhamiae; conditions: ATCC 9972, 48 h
# Trichophyton rubrum [13] = assay: Antifungal activity against Trichophyton rubrum C113 after 48 hrs; format: functional
# Aspergillus fumigatus = assay: Antifungal activity against Aspergillus fumigatus ATCC 26934 after 48 hrs; format: functional; conditions: ATCC 26934, 48 h
# Candida albicans [14] = assay: Antifungal activity against Candida albicans ATCC 10231 after 48 hrs; format: functional; conditions: ATCC 10231, 48 h
# Cryptococcus neoformans [15] = assay: Antifungal activity against Cryptococcus neoformans ATCC 32264 after 48 hrs; format: functional; conditions: ATCC 32264, 48 h
# Aspergillus niger = assay: Antifungal activity against Aspergillus niger ATCC 9029 after 48 hrs; format: functional; conditions: ATCC 9029, 48 h
# Aspergillus flavus = assay: Antifungal activity against Aspergillus flavus ATCC 9170 after 48 hrs; format: functional; conditions: ATCC 9170, 48 h
# Cryptococcus neoformans [16] = assay: Antifungal activity against […] IM 042074 after 48 hrs; format: functional
# Candida albicans [17] = assay: Antifungal activity against Candida albicans C126-2000 after 48 hrs; format: functional
# Candida albicans [18] = assay: Antifungal activity against Candida albicans C130-2000 after 48 hrs; format: functional
# Candida albicans [19] = assay: Antifungal activity against Candida albicans C125-2000 after 48 hrs; format: functional
# Candida albicans [20] = assay: Antifungal activity against Candida albicans C129-2000 after 48 hrs; format: functional
# Pichia kudriavzevii = assay: Antifungal activity against Candida krusei C117-2000 after 48 hrs; format: functional
# Cryptococcus neoformans [21] = assay: Antifungal activity against […] IM 031706 after 48 hrs; format: functional
# Candida tropicalis = assay: Antifungal activity against Candida tropicalis C131-1997 after 48 hrs; format: functional
# Nakaseomyces glabratus = assay: Antifungal activity against Candida glabrata C115-2000 after 48 hrs; format: functional
# Cryptococcus neoformans [22] = assay: Antifungal activity against […] IM 972724 after 48 hrs; format: functional
# Clavispora lusitaniae = assay: Antifungal activity against Candida lusitaniae C131-2000 after 48 hrs; format: functional
# Cryptococcus neoformans [23] = assay: Antifungal activity against […] ATCC 32264 after 48 hrs; format: functional; conditions: ATCC 32264, 48 h
# Cryptococcus neoformans [24] = assay: Antifungal activity against […] IM 961951 after 48 hrs; format: functional
# Cryptococcus neoformans [25] = assay: Antifungal activity against […] IM 983036 after 48 hrs; format: functional
# Cryptococcus neoformans [26] = assay: Antifungal activity against Candida neoformans IM 983040 after 48 hrs; format: functional
# Candida albicans [27] = assay: Antifungal activity against Candida albicans C128-2000 after 48 hrs; format: functional
# Cryptococcus neoformans [28] = assay: Antifungal activity against […] IM 972751 after 48 hrs; format: functional
# Cryptococcus neoformans [29] = assay: Antifungal activity against […] IM 052470 after 48 hrs; format: functional
# Kluyveromyces marxianus = assay: Antifungal activity against Candida kefyr C123-2000 after 48 hrs; format: functional
# Torulaspora delbrueckii = assay: Antifungal activity against Candida coliculosa C122-2000 after 48 hrs; format: functional
# Candida albicans [30] = assay: Antifungal activity against Candida albicans C127-2000 after 48 hrs; format: functional
# Cryptococcus neoformans [31] = assay: Antifungal activity against […] IM 031631 after 48 hrs; format: functional; conditions: Cryptococcus neoformans, 48 h
# Cryptococcus neoformans [32] = assay: Antifungal activity against […] IM 00319 after 48 hrs; format: functional
# Candida parapsilosis = assay: Antifungal activity against Candida parapsilosis C124-2000 after 48 hrs; format: functional; conditions: Lodderomyces parapsilosis
compound,measurement,setting,value
CN(C/C=C/C#CC(C)(C)C)Cc1cccc2ccccc12 [TERBINAFINE],MIC,Trichophyton benhamiae [1],0.006 µg/mL
same,MIC,Trichophyton benhamiae [2],0.006 µg/mL
same,MIC,Trichophyton rubrum [3],0.003 µg/mL
same,MIC,Trichophyton rubrum [4],0.006 µg/mL
same,MIC,Trichophyton rubrum [5],0.012 µg/mL
same,MIC,Trichophyton benhamiae [6],0.006 µg/mL
same,MIC,Trichophyton rubrum [7],0.006 µg/mL
same,MIC,Trichophyton rubrum [8],0.006 µg/mL
same,MIC,Trichophyton benhamiae [9],0.006 µg/mL
same,MIC,Trichophyton benhamiae [10],0.006 µg/mL
same,MIC,Trichophyton rubrum [11],0.006 µg/mL
O=C1NC(=S)S/C1=C\c1ccccc1C(F)(F)F,MIC,Saccharomyces cerevisiae,250 µg/mL
same,MIC,Nannizzia gypsea,3.9 µg/mL
same,MIC,Trichophyton benhamiae [12],3.9 µg/mL
same,MIC,Trichophyton rubrum [13],3.9 µg/mL
same,MIC,Aspergillus fumigatus,> 250 µg/mL
same,MIC,Trichophyton benhamiae [1],1.95 µg/mL
same,MIC,Trichophyton benhamiae [2],1.95 µg/mL
same,MIC,Candida albicans [14],250 µg/mL
same,MIC,Trichophyton rubrum [3],3.57 µg/mL
same,MIC,Trichophyton rubrum [4],3.9 µg/mL
same,MIC,Trichophyton rubrum [5],3.9 µg/mL
same,MIC,Trichophyton benhamiae [6],0.97 µg/mL
same,MIC,Trichophyton rubrum [7],3.9 µg/mL
same,MIC,Cryptococcus neoformans [15],15.6 µg/mL
same,MIC,Aspergillus niger,> 250 µg/mL
same,MIC,Trichophyton rubrum [8],1.95 µg/mL
same,MIC,Trichophyton benhamiae [9],0.97 µg/mL
same,MIC,Trichophyton benhamiae [10],1.95 µg/mL
same,MIC,Aspergillus flavus,> 250 µg/mL
same,MIC,Trichophyton rubrum [11],3.9 µg/mL
O=C1NC(=S)S/C1=C\c1ccc(F)cc1,MIC,Saccharomyces cerevisiae,7.8 µg/mL
same,MFC,Cryptococcus neoformans [16],31.2 µg/mL
same,MIC,Cryptococcus neoformans [16],7.8 µg/mL
same,MIC50,Cryptococcus neoformans [16],3.9 µg/mL
same,MIC80,Cryptococcus neoformans [16],3.9 µg/mL
same,MFC,Candida albicans [17],31.2 µg/mL
same,MIC,Candida albicans [17],15.6 µg/mL
same,MIC50,Candida albicans [17],3.9 µg/mL
same,MIC80,Candida albicans [17],15.6 µg/mL
same,MFC,Candida albicans [18],31.2 µg/mL
same,MIC,Candida albicans [18],15.6 µg/mL
same,MIC50,Candida albicans [18],3.9 µg/mL
same,MIC80,Candida albicans [18],7.8 µg/mL
same,MIC,Nannizzia gypsea,15.6 µg/mL
same,MFC,Candida albicans [19],31.2 µg/mL
same,MIC,Candida albicans [19],15.6 µg/mL
same,MIC50,Candida albicans [19],7.8 µg/mL
same,MIC80,Candida albicans [19],7.8 µg/mL
same,MFC,Candida albicans [20],31.2 µg/mL
same,MIC,Candida albicans [20],15.6 µg/mL
same,MIC50,Candida albicans [20],3.9 µg/mL
same,MIC80,Candida albicans [20],7.8 µg/mL
same,MIC,Trichophyton benhamiae [12],7.8 µg/mL
same,MIC,Trichophyton rubrum [13],32 µg/mL
same,MIC,Aspergillus fumigatus,250 µg/mL
same,MFC,Pichia kudriavzevii,62.5 µg/mL
same,MIC,Pichia kudriavzevii,31.2 µg/mL
same,MIC50,Pichia kudriavzevii,3.9 µg/mL
same,MIC80,Pichia kudriavzevii,7.8 µg/mL
same,MFC,Cryptococcus neoformans [21],31.2 µg/mL
same,MIC,Cryptococcus neoformans [21],7.8 µg/mL
same,MIC50,Cryptococcus neoformans [21],1.9 µg/mL
same,MIC80,Cryptococcus neoformans [21],3.9 µg/mL
same,MFC,Candida tropicalis,15.6 µg/mL
same,MIC,Candida tropicalis,7.8 µg/mL
same,MIC50,Candida tropicalis,3.9 µg/mL
same,MIC80,Candida tropicalis,7.8 µg/mL
same,MFC,Nakaseomyces glabratus,51.6 µg/mL
same,MIC,Nakaseomyces glabratus,7.8 µg/mL
same,MIC50,Nakaseomyces glabratus,3.9 µg/mL
same,MIC80,Nakaseomyces glabratus,3.9 µg/mL
same,MFC,Cryptococcus neoformans [22],31.2 µg/mL
same,MIC,Cryptococcus neoformans [22],15.6 µg/mL
same,MIC50,Cryptococcus neoformans [22],3.9 µg/mL
same,MIC80,Cryptococcus neoformans [22],7.8 µg/mL
same,MIC,Trichophyton benhamiae [1],1.95 µg/mL
same,MFC,Clavispora lusitaniae,15.6 µg/mL
same,MIC,Clavispora lusitaniae,7.8 µg/mL
same,MIC50,Clavispora lusitaniae,3.9 µg/mL
same,MIC80,Clavispora lusitaniae,3.9 µg/mL
same,MIC,Trichophyton benhamiae [2],1.95 µg/mL
same,MFC,Cryptococcus neoformans [23],31.2 µg/mL
same,MIC,Cryptococcus neoformans [23],7.8 µg/mL
same,MIC50,Cryptococcus neoformans [23],3.9 µg/mL
same,MIC80,Cryptococcus neoformans [23],7.8 µg/mL
same,MFC,Cryptococcus neoformans [24],15.6 µg/mL
same,MIC,Cryptococcus neoformans [24],7.8 µg/mL
same,MIC50,Cryptococcus neoformans [24],1.9 µg/mL
same,MIC80,Cryptococcus neoformans [24],7.8 µg/mL
same,MFC,Cryptococcus neoformans [25],62.5 µg/mL
same,MIC,Cryptococcus neoformans [25],15.6 µg/mL
same,MIC50,Cryptococcus neoformans [25],7.8 µg/mL
same,MIC80,Cryptococcus neoformans [25],7.8 µg/mL
same,MFC,Cryptococcus neoformans [26],31.2 µg/mL
same,MIC,Cryptococcus neoformans [26],15.6 µg/mL
same,MIC50,Cryptococcus neoformans [26],1.9 µg/mL
same,MIC80,Cryptococcus neoformans [26],1.9 µg/mL
same,MIC,Candida albicans [14],7.8 µg/mL
same,MFC,Candida albicans [27],62.5 µg/mL
same,MIC,Candida albicans [27],31.2 µg/mL
same,MIC50,Candida albicans [27],3.9 µg/mL
same,MIC80,Candida albicans [27],15.6 µg/mL
same,MFC,Cryptococcus neoformans [28],62.5 µg/mL
same,MIC,Cryptococcus neoformans [28],7.8 µg/mL
same,MIC50,Cryptococcus neoformans [28],1.9 µg/mL
same,MIC80,Cryptococcus neoformans [28],1.9 µg/mL
same,MIC,Trichophyton benhamiae [6],0.97 µg/mL
same,MIC,Cryptococcus neoformans [15],7.8 µg/mL
same,MIC,Aspergillus niger,250 µg/mL
same,MFC,Cryptococcus neoformans [29],31.2 µg/mL
same,MIC,Cryptococcus neoformans [29],7.8 µg/mL
same,MIC50,Cryptococcus neoformans [29],1.9 µg/mL
same,MIC80,Cryptococcus neoformans [29],1.9 µg/mL
same,MIC,Trichophyton benhamiae [9],0.97 µg/mL
same,MFC,Kluyveromyces marxianus,31.2 µg/mL
same,MIC,Kluyveromyces marxianus,31.2 µg/mL
same,MIC50,Kluyveromyces marxianus,3.9 µg/mL
same,MIC80,Kluyveromyces marxianus,7.8 µg/mL
same,MFC,Torulaspora delbrueckii,15.6 µg/mL
same,MIC,Torulaspora delbrueckii,7.8 µg/mL
same,MIC50,Torulaspora delbrueckii,3.9 µg/mL
same,MIC80,Torulaspora delbrueckii,3.9 µg/mL
same,MFC,Candida albicans [30],31.2 µg/mL
same,MIC,Candida albicans [30],15.6 µg/mL
same,MIC50,Candida albicans [30],7.8 µg/mL
same,MIC80,Candida albicans [30],15.6 µg/mL
same,MIC,Trichophyton benhamiae [10],1.95 µg/mL
same,MIC,Cryptococcus neoformans [31],7.8 µg/mL
same,MIC50,Cryptococcus neoformans [31],1.9 µg/mL
same,MIC80,Cryptococcus neoformans [31],3.9 µg/mL
same,MFC,Cryptococcus neoformans [31]; read-out: MFC,31.2 µg/mL
same,MIC,Aspergillus flavus,250 µg/mL
same,MFC,Cryptococcus neoformans [32],15.6 µg/mL
same,MIC,Cryptococcus neoformans [32],7.8 µg/mL
same,MIC50,Cryptococcus neoformans [32],1.9 µg/mL
same,MIC80,Cryptococcus neoformans [32],1.9 µg/mL
same,MFC,Candida parapsilosis,15.6 µg/mL
same,MIC,Candida parapsilosis,7.8 µg/mL
same,MIC50,Candida parapsilosis,7.8 µg/mL
same,MIC80,Candida parapsilosis,3.9 µg/mL
